In the series the test system is rodent carcinogenicity bioassays, tumor incidence. Kind of series: CCRIS carcinogenicity studies. In short, it runs like this:
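NCI-built, expert-reviewed records of carcinogenicity and related test outcomes (mutagenicity, tumor promotion/inhibition) compiled from published and report sources, historical span 1985-2011, not updated.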

Calls of active or inactive are those of the source. How the calls were made is not given here.

Turning to `Fc1cccc2ncccc12`, the carcinogen call is “inactive; negative” (Species: MOUSE, Strain/Sex: CD-1/FEMALE, Route: INTRAPERITONEAL, Dose: 0, 1.75 UMOL/MOUSE (TOTAL DOSE) ADMINISTERED DURING DAYS 1, 8, AND 15 OF LIFE (STUDY DURATION: 52 WK)) and “active; positive” (Species: MOUSE, Strain/Sex: CD-1/MALE, Route: INTRAPERITONEAL, Dose: 0, 1.75 UMOL/MOUSE (TOTAL DOSE) ADMINISTERED DURING DAYS 1, 8, AND 15 OF LIFE (STUDY DURATION: 52 WK), Tumor Site: Type of Lesion: LIVER: CARCINOMA).

As for `O[C@@H]1[C@@H]2O[C@@H]2c2c(cc3ccc4cccc5c6ccccc6c2c3c45)[C@H]1O`, the carcinogen call reads like this: (Species: MOUSE, Strain/Sex: ICR/FEMALE, Route: INTRAPERITONEAL, Dose: 0, 0.7 NMOL TOTAL DOSE INJECTED ON DAY 1 OF LIFE (STUDY DURATION: 35 WK), Tumor Site: Type of Lesion: LIVER: TUMOR, LUNG: TUMOR) “active; positive”; (Species: MOUSE, Strain/Sex: ICR/FEMALE, Route: INTRAPERITONEAL, Dose: 0, 1 NMOL (TOTAL DOSE) ADMINISTERED IN DOSES OF 1/7, 2/7, AND 4/7 ON DAYS 1, 7, AND 15 OF LIFE, RESPECTIVELY (STUDY DURA, Tumor Site: Type of Lesion: LUNG: TUMOR) “active; positive”; (Species: MOUSE, Strain/Sex: ICR/FEMALE, Route: INTRAPERITONEAL, Dose: 0, 1 NMOL TOTAL DOSE INJECTED IN DOSES OF 1/7 ON DAY 1, 2/7 ON DAY 8, AND 4/7 ON DAY 15 OF LIFE (STUDY DURATION: 35 WK), Tumor Site: Type of Lesion: LIVER: TUMOR, LUNG: TUMOR) “active; positive”; (Species: MOUSE, Strain/Sex: ICR/MALE, Route: INTRAPERITONEAL, Dose: 0, 0.7 NMOL TOTAL DOSE INJECTED ON DAY 1 OF LIFE (STUDY DURATION: 35 WK), Tumor Site: Type of Lesion: LUNG: TUMOR) “active; positive”; (Species: MOUSE, Strain/Sex: ICR/MALE, Route: INTRAPERITONEAL, Dose: 0, 1 NMOL (TOTAL DOSE) ADMINISTERED IN DOSES OF 1/7, 2/7, AND 4/7 ON DAYS 1, 7, AND 15 OF LIFE, RESPECTIVELY (STUDY DURA, Tumor Site: Type of Lesion: LUNG: TUMOR, LIVER: TUMOR) “active; positive”; (Species: MOUSE, Strain/Sex: ICR/MALE, Route: INTRAPERITONEAL, Dose: 0, 1 NMOL TOTAL DOSE INJECTED IN DOSES OF 1/7 ON DAY 1, 2/7 ON DAY 8, AND 4/7 ON DAY 15 OF LIFE (STUDY DURATION: 35 WK), Tumor Site: Type of Lesion: LIVER: TUMOR, LUNG:TUMOR) “active; positive”. Besides, the carcinogen call was “active; positive” (Species: RAT, Strain/Sex: CD-1/FEMALE, Route: INJECTION, Dose: 0, 0.2 UMOL IN 0.1 ML DMSO INJECTED BENEATH EACH OF THE 6 NIPPLES ON THE LEFT SIDE (STUDY DURATION: 41 WK), Tumor Site: Type of Lesion: MAMMARY GLAND: TUMOR) and “active; positive” (Species: RAT, Strain/Sex: STRAIN-CD/FEMALE, Route: INJECTION, Dose: 0, 0.2 UMOL IN 0.1 ML DMSO INJECTED UNDER EACH OF THE 3 LEFT THORACIC NIPPLES FOLLOWED THE NEXT DAY BY SIMILAR TREATMENT, Tumor Site: Type of Lesion: MAMMARY GLAND: TUMOR).

`CCOC(=O)c1ccccc1C(=O)OCC`: the carcinogen call reads like this: (Species: MOUSE, Strain/Sex: B6C3F1/FEMALE, Route: DERMAL, Dose: 0, 7.5, 15, 30 µL/100 µL IN ACETONE 5 D/WK FOR 104-105 WK (STUDY DURATION: 104-105 WK), Dose: 0, 7.5, 15, 30 µL/100 µL IN ACETONE 5 D/WK FOR 104-105 WK (STUDY DURATION: 104-105 WK), Tumor Site: Type of Lesion: LIVER: HEPATOCELLULAR ADENOMA, HEPATOCELLULAR ADENOMA OR CARCINOMA) “equivocal”; (Species: MOUSE, Strain/Sex: B6C3F1/MALE, Route: DERMAL, Dose: 0, 7.5, 15, 30 µL/100 µL IN ACETONE 5 D/WK FOR 104-105 WK (STUDY DURATION: 104-105 WK), Dose: 0, 7.5, 15, 30 µL/100 µL IN ACETONE 5 D/WK FOR 104-105 WK (STUDY DURATION: 104-105 WK), Tumor Site: Type of Lesion: LIVER: HEPATOCELLULAR ADENOMA, HEPATOCELLULAR ADENOMA OR CARCINOMA) “equivocal”; (Species: RAT, Strain/Sex: F344/FEMALE, Route: DERMAL, Dose: 0, 100, 300 µL IN ACETONE 5 D/WK FOR 104 WK (STUDY DURATION: 104 WK), Dose: 0, 100, 300 µL IN ACETONE 5 D/WK FOR 104 WK (STUDY DURATION: 104 WK)) “inactive; negative”; (Species: RAT, Strain/Sex: F344/MALE, Route: DERMAL, Dose: 0, 100, 300 µL IN ACETONE 5 D/WK FOR 104 WK (STUDY DURATION: 104 WK), Dose: 0, 100, 300 µL IN ACETONE 5 D/WK FOR 104 WK (STUDY DURATION: 104 WK)) “inactive; negative”.

As to `CN(C)CCOC(C)(c1ccccc1)c1ccccn1` (stereo not given), the carcinogen call was “active; positive” (Species: MOUSE, Strain/Sex: B6C3F1/FEMALE, Route: ORAL, Dose: 0, 190, 375, 750 PPM IN DIET FOR 2 YR (STUDY DURATION: 2 YR), Dose: 0, 190, 375, 750 PPM IN DIET FOR 2 YR (STUDY DURATION: 2 YR), Tumor Site: Type of Lesion: LIVER: HEPATOCELLULAR ADENOMA, THYROID: FOLLICULAR CELL ADENOMA); “active; positive” (Species: MOUSE, Strain/Sex: B6C3F1/MALE, Route: ORAL, Dose: 0, 190, 375, 750 PPM IN DIET FOR 2 YR (STUDY DURATION: 2 YR), Dose: 0, 190, 375, 750 PPM IN DIET FOR 2 YR (STUDY DURATION: 2 YR), Tumor Site: Type of Lesion: LIVER: HEPATOCELLULAR ADENOMA, THYROID: FOLLICULAR CELL ADENOMA); “inactive; negative” (Species: RAT, Strain/Sex: F344/FEMALE, Route: ORAL, Dose: 0, 500, 1000, 2000 PPM IN DIET FOR 2 YR (STUDY DURATION: 2 YR), Dose: 0, 500, 1000, 2000 PPM IN DIET FOR 2 YR (STUDY DURATION: 2 YR)).

As for `Cc1cc2ccccc2c2ccc3c(c12)[C@H]1O[C@H]1[C@@H](O)[C@H]3O`, the carcinogen call is “active; positive” (Species: MOUSE, Strain/Sex: ICR/FEMALE, Route: INTRAPERITONEAL, Dose: 8 NMOL/5 µL DMSO ON DAY 1, 16 NMOL/10 µL ON DAY 8, AND 32 NMOL/20 µL ON DAY 15 OF AGE (STUDY DURATION: 35 WK), Tumor Site: Type of Lesion: LUNG: TUMORS) and “active; positive” (Species: MOUSE, Strain/Sex: ICR/MALE, Route: INTRAPERITONEAL, Dose: 8 NMOL/5 µL DMSO ON DAY 1, 16 NMOL/10 µL ON DAY 8, AND 32 NMOL/20 µL ON DAY 15 OF AGE (STUDY DURATION: 35 WK), Tumor Site: Type of Lesion: LIVER: TUMORS).

For the compound `CC(C)CON=O`, the carcinogen call (Species: MOUSE, Strain/Sex: B6C3F1/FEMALE, Route: INHALATION, Dose: 0, 158, 315, 630 MG/M3 6 HR/D 5 D/WK FOR 103 WK (STUDY DURATION: 104 WK), Dose: 0, 158, 315, 630 MG/M3 6 HR/D 5 D/WK FOR 103 WK (STUDY DURATION: 104 WK), Tumor Site: Type of Lesion: LUNG: ALVEOLAR/BRONCHIOLAR ADENOMA, ALVEOLAR/BRONCHIOLAR ADENOMA OR CARCINOMA) is “active; positive”; the carcinogen call (Species: MOUSE, Strain/Sex: B6C3F1/MALE, Route: INHALATION, Dose: 0, 158, 315, 630 MG/M3 6 HR/D 5 D/WK FOR 103 WK (STUDY DURATION: 104 WK), Dose: 0, 158, 315, 630 MG/M3 6 HR/D 5 D/WK FOR 103 WK (STUDY DURATION: 104 WK), Tumor Site: Type of Lesion: LUNG: ALVEOLAR/BRONCHIOLAR ADENOMA, ALVEOLAR/BRONCHIOLAR ADENOMA OR CARCINOMA) is “active; positive”; the carcinogen call (Species: RAT, Strain/Sex: F344/FEMALE, Route: INHALATION, Dose: 0, 158, 315, 630 MG/M3 6 HR/D 5 D/WK FOR 103 WK (STUDY DURATION: 105 WK), Dose: 0, 158, 315, 630 MG/M3 6 HR/D 5 D/WK FOR 103 WK (STUDY DURATION: 105 WK), Tumor Site: Type of Lesion: LUNG: ALVEOLAR/BRONCHIOLAR ADENOMA, ALVEOLAR/BRONCHIOLAR CARCINOMA OR ADENOMA) is “active; positive”; the carcinogen call (Species: RAT, Strain/Sex: F344/MALE, Route: INHALATION, Dose: 0, 158, 315, 630 MG/M3 6 HR/D 5 D/WK FOR 103 WK (STUDY DURATION: 105 WK), Dose: 0, 158, 315, 630 MG/M3 6 HR/D 5 D/WK FOR 103 WK (STUDY DURATION: 105 WK), Tumor Site: Type of Lesion: LUNG: ALVEOLAR/BRONCHIOLAR ADENOMA, ALVEOLAR/BRONCHIOLAR CARCINOMA) is “active; positive”.

On to `C#C[C@]1(O)CC[C@H]2[C@@H]3CCc4cc(OC)ccc4[C@H]3CC[C@@]21C`, for which the carcinogen call (Species: MOUSE, Route: ORAL, Tumor Site: Type of Lesion: MAMMARY GLAND, PITUITARY GLAND) was “active; positive” and the carcinogen call (Species: RAT, Route: ORAL, Tumor Site: Type of Lesion: MAMMARY GLAND) was “active; positive”.
